From patent US10336732B2, “1-heterocyclyl isochromanyl compounds and analogs for treating CNS disorders” (Sunovion Pharmaceuticals Inc., priority 2015, dated 2019)

Tests used:
[1] = test system: α1 (non-selective); assay: In vitro radioligand binding assay, α1 (non-selective), [3H]prazosin; set-up: concentration or dose not given beside the values; details: rat cerebral cortex membranes
Protocol: (§1) Certain compounds were tested by in vitro binding assays using standard procedures. […] These receptors and assays are well known to those skilled in the art, as exemplified by the following: Abramovitz, M. et al. (2000), Biochem. Biophys. Acta., 1483: 285-293 (EP4, IP (PGI2)); Aharony, D. et al. (1993), Mol. Pharmacol., 44: 356-363 (NK2); Ardati, A. et al. (1997), Mol. Pharmacol., 51: 816-824 (NOP (ORL1)); Bignon, E. et al. (1999), J. Pharmacol. Exp. Ther. 289: 742-751 (CCK1 (CCKA)); Bloomquist, B. T. et al. (1998), Biochem. Biophys. Res. Commun., 243: 474-479 (GAL2); Brockhaus, M. et al. (1990), Proc. Natl. Acad. Sci. U.S.A., 87: 3127-3131 (TNF-α); Brown, G. B. (1986), J. Neurosci., 6: 2064-2070 (Na+ channel (site 2)); Buchan, K. W. et al. (1994), Brit. J. Pharmacol., 112: 1251-1257 (ETA); Cesura, A. M. et al. (1990), Mol. Pharmacol., 37: 358-366 (MAO-A); Choi, D. S. et al. (1994), FEBS Lett., 352: 393-399 (5-HT2B); Clark, A. F. et al. (1996), Invest. Ophtalmol. Vis. Sci., 37: 805-813 (GR); Couvineau, A. et al. (1985), Biochem. J., 231: 139-143 (VPAC1 (VIP1)); Dorje, F. et al. (1991), J. Pharmacol. Exp. Ther., 256: 727-733 (M1, M2, M3, M4); Ferry, G. et al. (2001), Eur. J. Pharmacol., 417: 77-89 (PPARγ); Fuchs, S. et al. (2001), Mol. Med., 7: 115-124 (ETB); Fuhlendorff, J. et al. (1990), Proc. Natl. Acad. Sci. U.S.A., 87: 182-186 (Y2); Ganapathy M E. et al. (1999), J. Pharmacol. Exp. Ther., 289: 251-260 (sigma (non-selective)); Gopalakrishnan, M. et al. (1996), J. Pharmacol. Exp. Ther., 276: 289-297 (N neuronal α4β2); Greengrass, P. and Bremner, R. (1979), Eur. J. Pharmacol., 55: 323-326 (α1 (non-selective)); Grandy, D. K. et al. (1989), Proc. Natl. Acad. Sci. U.S.A., 86: 9762-9766 (D25); Guard, S. et al. (1993), Eur. J. Pharmacol., 240:177-184 (BB (non-selective)); Heuillet, E. et al. (1993), J. Neurochem., 60: 868-876 (NK1, P2X); Hope, A. G. et al. (1996), Brit. J. Pharmacol., 118: 1237-1245 (5-HT3); Hoyer, D. et al. (1985), Eur. J. Pharmacol., 118: 1-12 (5-HT1B); Hugues, M. et al. (1982), J. Biol. Chem., 257: 2762-2769 (5-HT2A, SKCa channel); Joseph, S. S. et al. (2004), Naun.-Sch. Arch. Pharm., 369: 525-532 (β2); Le, M. T. et al. (2005), Eur. J. Pharmacol., 513: 35-45 (AT1); Le Fur, G. et al. (1983), Life Sci., 33: 449-457) (BZD (peripheral); Lee, Y. M. et al. (1993), J. Biol. Chem., 268: 8164-8169 (CCK2 (CCKB)); Leurs, R. et al. (1994), Brit. J. Pharmacol., 112: 847-854 (H2); Levin, M. C. et al. (2002), J. Biol. Chem., 277: 30429-30435 (11); Lewin, A. H. et al. (1989), Mol. Pharmacol., 35: 189-194 (Cl− channel (GABA-gated)); Lukas, R. J. (1986), J. Neurochem., 46: 1936-1941 (N muscle-type); Luthin, D. R. et al. (1995), Mol. Pharmacol., 47: 307-313; (A2A); Mackenzie, R. G. et al. (1994), Eur. J. Pharmacol., 266: 79-85 (D3); Mulheron, J. G. et al. (1994), J. Biol. Chem., 269: 12954-12962 (5-HT1A); Meng, F. et al. (1993), Proc. Natl. Acad. Sci. U.S.A., 90: 9954-9958 (κ (KOP)); Monsma, F. J. et al. (1993), Mol. Pharmacol., 43: 320-327 (5-HT6); Neote, K. et al. (1993), Cell, 72: 415-425 (CCR1); Pacholczyk, T. et al. (1991), Nature, 350: 350-354 (sst (non-selective, norepinephrine transporter)); Peralta, E. G. et al. (1987), Embo. J., 6: 3923-3929 (M3); Pristupa, Z. B. et al. (1994), Mol. Pharmacol., 45: 125-135 (dopamine transporter); Pruneau, D. et al. (1998), Brit. J. Pharmacol., 125: 365-372 (B2); Rees, S. et al. (1994), FEBS Lett., 355: 242-246 (5-HT5a); Reynolds, I. J. et al. (1986), J. Pharmacol. Exp. Ther., 237: 731-738 (Ca2+ channel (L, verapamil site)); Rinaldi-Carmona, M. et al. (1996), J. Pharmacol. Exp. Ther., 278: 871-878 (CB1); Salvatore, C. A. et al. (1993), Proc. Natl. Acad. Sci. U.S.A., 90: 10365-10369 (A3); Sarau, H. M. et al. (1997), J. Pharmacol. Exp. Ther., 281: 1303-1311 (NK3); Schioth, H. B. et al. (1997), Neuropeptides, 31: 565-571 (MC4); Sharples, C. […]

[2] = molecular target: T1, 5-HT2B (Homo sapiens, UniProt P41595); assay: In vitro radioligand binding assay, 5-HT2B, [125I](±)DOI; set-up: concentration or dose not given beside the values; details: human recombinant (CHO cells)
T1 construct: expressed in transfected cells; host or cells: CHO cells
T1 sequence (P41595 whole entry): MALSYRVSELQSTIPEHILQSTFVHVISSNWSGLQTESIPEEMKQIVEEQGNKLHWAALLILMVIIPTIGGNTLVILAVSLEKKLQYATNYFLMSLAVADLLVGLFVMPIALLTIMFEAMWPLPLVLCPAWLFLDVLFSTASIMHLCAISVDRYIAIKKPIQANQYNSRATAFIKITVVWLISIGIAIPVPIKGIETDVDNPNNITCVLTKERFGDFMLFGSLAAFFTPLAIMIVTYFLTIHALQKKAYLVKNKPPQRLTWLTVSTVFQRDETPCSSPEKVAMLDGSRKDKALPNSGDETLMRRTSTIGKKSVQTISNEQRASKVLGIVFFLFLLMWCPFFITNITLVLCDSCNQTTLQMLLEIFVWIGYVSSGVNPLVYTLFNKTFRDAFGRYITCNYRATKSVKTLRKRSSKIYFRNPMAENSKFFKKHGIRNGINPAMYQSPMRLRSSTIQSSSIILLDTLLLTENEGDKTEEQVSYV
Protocol: as §1

Fc1cccc2c1[C@H]([C@@H]1CCCN1)OCC2 [Compound I-1, (S)-2-((R)-8-fluoroisochroman-1-yl)pyrrolidine]
α1 percent inhibition of specific binding [1]: 55% | 5HT2b percent inhibition of specific binding [2]: 79%

Fc1ccc2c(c1)[C@H]([C@@H]1CCCN1)OCC2 [Compound I-5, (2S)-2-((R)-7-fluoroisochroman-1-yl)pyrrolidine]
α1 percent inhibition of specific binding [1]: 59% | 5HT2b percent inhibition of specific binding [2]: 72%

Fc1ccc2c(c1)CCO[C@H]2[C@@H]1CCCN1 [Compound I-9, (S)-2-((R)-6-fluoroisochroman-1-yl)pyrrolidine]
α1 percent inhibition of specific binding [1]: 73% | 5HT2b percent inhibition of specific binding [2]: 76%

Clc1ccc2c(c1)[C@H]([C@@H]1CCCN1)OCC2 [Compound I-29, (S)-2-((R)-7-chloroisochroman-1-yl)pyrrolidine]
α1 percent inhibition of specific binding [1]: 69% | 5HT2b percent inhibition of specific binding [2]: 80%

Fc1cccc2c1[C@H]([C@@H]1CCN1)OCC2 [Compound I-83, (S)-2-((R)-8-fluoroisochroman-1-yl)azetidine]
5HT2b percent inhibition of specific binding [2]: 83%

Fc1ccc2c(c1)CCO[C@H]2[C@@H]1CCN1 [Compound I-90, (S)-2-((R)-6-fluoroisochroman-1-yl)azetidine]
α1 percent inhibition of specific binding [1]: 64% | 5HT2b percent inhibition of specific binding [2]: 77%

Fc1cccc2c1CCO[C@@H]2[C@@H]1CCN1 [Compound I-94, (S)-2-((S)-5-fluoroisochroman-1-yl)azetidine]
α1 percent inhibition of specific binding [1]: 72% | 5HT2b percent inhibition of specific binding [2]: 76%

Fc1cccc2c1CCO[C@@H]2[C@H]1CCN1 [Compound I-96, (R)-2-((S)-5-fluoroisochroman-1-yl)azetidine]
α1 percent inhibition of specific binding [1]: 81% | 5HT2b percent inhibition of specific binding [2]: 58%
